# From ChEMBL document CHEMBL2385069, “Thiourea derivatives incorporating a hippuric acid moiety: synthesis and evaluation of antibacterial and antifungal activities” (2013)
# Assays:
# Micrococcus luteus [1] = assay: Antibacterial activity against Sarcina lutea assessed as diameter of inhibition zone at 1 mg/ml after 24 hrs by agar well diffusion method; assay type: functional; conditions: read-out: DIZ
# Saccharomyces cerevisiae [2] = assay: Antifungal activity against Saccharomyces cerevisiae after 24 hrs by two fold serial dilution technique; assay type: functional
# Bacillus subtilis [3] = assay: Antibacterial activity against Bacillus subtilis ATCC 6633 after 24 hrs by two fold serial dilution technique; assay type: functional; conditions: ATCC 6633, 24 h
# Bacillus subtilis [4] = assay: Ratio of Ciprofloxacin MIC to compound MIC for Bacillus subtilis ATCC 6633; assay type: functional
# Escherichia coli [5] = assay: Antibacterial activity against Escherichia coli ATCC 25922 after 24 hrs by two fold serial dilution technique; assay type: functional; conditions: ATCC 25922, 24 h
# Proteus vulgaris [6] = assay: Antibacterial activity against Proteus vulgaris after 24 hrs by two fold serial dilution technique; assay type: functional
# Klebsiella pneumoniae [7] = assay: Antibacterial activity against Klebsiella pneumoniae ATCC 13883 after 24 hrs by two fold serial dilution technique; assay type: functional; conditions: ATCC 13883, 24 h
# Escherichia coli [8] = assay: Antibacterial activity against Escherichia coli ATCC 25922 assessed as diameter of inhibition zone at 1 mg/ml after 24 hrs by agar well diffusion method; assay type: functional; conditions: ATCC 25922, 24 h, read-out: DIZ
# Bacillus subtilis [9] = assay: Antibacterial activity against Bacillus subtilis ATCC 6633 assessed as diameter of inhibition zone at 1 mg/ml after 24 hrs by agar well diffusion method; assay type: functional; conditions: ATCC 6633, 24 h, read-out: DIZ
# Candida albicans [10] = assay: Antifungal activity against Candida albicans NRRLY-477 assessed as diameter of inhibition zone at 1 mg/ml after 24 hrs by agar well diffusion method; assay type: functional; conditions: NRRLY-477, 24 h, read-out: DIZ
# Staphylococcus aureus [11] = assay: Antibacterial activity against Staphylococcus aureus ATCC 29213 assessed as diameter of inhibition zone at 1 mg/ml after 24 hrs by agar well diffusion method; assay type: functional; conditions: ATCC 29213, 24 h, read-out: DIZ
# Priestia megaterium [12] = assay: Antibacterial activity against Bacillus megaterium ATCC 9885 assessed as diameter of inhibition zone at 1 mg/ml after 24 hrs by agar well diffusion method; assay type: functional; conditions: ATCC 9885, 24 h, read-out: DIZ
# Klebsiella pneumoniae [13] = assay: Antibacterial activity against Klebsiella pneumoniae ATCC 13883 assessed as diameter of inhibition zone at 1 mg/ml after 24 hrs by agar well diffusion method; assay type: functional; conditions: ATCC 13883, 24 h, read-out: DIZ
# Staphylococcus aureus [14] = assay: Antibacterial activity against Staphylococcus aureus ATCC 29213 after 24 hrs by two fold serial dilution technique; assay type: functional; conditions: ATCC 29213, 24 h
# Micrococcus luteus [15] = assay: Antibacterial activity against Sarcina lutea after 24 hrs by two fold serial dilution technique; assay type: functional
# Pseudomonas aeruginosa [16] = assay: Antibacterial activity against Pseudomonas aeruginosa ATCC 27953 after 24 hrs by two fold serial dilution technique; assay type: functional; conditions: ATCC 27953, 24 h
# Candida albicans [17] = assay: Antifungal activity against Candida albicans NRRLY-477 after 24 hrs by two fold serial dilution technique; assay type: functional; conditions: NRRLY-477, 24 h
# Pseudomonas aeruginosa [18] = assay: Antibacterial activity against Pseudomonas aeruginosa ATCC 27953 assessed as diameter of inhibition zone at 1 mg/ml after 24 hrs by agar well diffusion method; assay type: functional; conditions: ATCC 27953, 24 h, read-out: DIZ
# Saccharomyces cerevisiae [19] = assay: Antifungal activity against Saccharomyces cerevisiae assessed as diameter of inhibition zone at 1 mg/ml after 24 hrs by agar well diffusion method; assay type: functional; conditions: read-out: DIZ
# Candida albicans [20] = assay: Ratio of ketoconazole MIC to compound MIC for Candida albicans NRRLY-477; assay type: functional
# Proteus vulgaris [21] = assay: Antibacterial activity against Proteus vulgaris assessed as diameter of inhibition zone at 1 mg/ml after 24 hrs by agar well diffusion method; assay type: functional; conditions: read-out: DIZ
# Priestia megaterium [22] = assay: Antibacterial activity against Bacillus megaterium ATCC 9885 after 24 hrs by two fold serial dilution technique; assay type: functional; conditions: ATCC 9885, 24 h
# Staphylococcus aureus [23] = assay: Ratio of Ciprofloxacin MIC to compound MIC for Staphylococcus aureus ATCC 29213; assay type: functional
# Pseudomonas aeruginosa [24] = assay: Ratio of Ciprofloxacin MIC to compound MIC for Pseudomonas aeruginosa ATCC 27953; assay type: functional
# Pseudomonas aeruginosa [25] = assay: microbe, parasite or virus in culture; conditions: ATCC 27953, 24 h, read-out: DIZ
# Description: Antibacterial activity against Pseudomonas aeruginosa ATCC 27953 assessed as diameter of inhibition zone at 0.5 mg/ml after 24 hrs by agar well diffusion method
# Proteus vulgaris [26] = assay: Antibacterial activity against Proteus vulgaris assessed as diameter of inhibition zone at 0.5 mg/ml after 24 hrs by agar well diffusion method; assay type: functional; conditions: read-out: DIZ
# Micrococcus luteus [27] = assay: Antibacterial activity against Sarcina lutea assessed as diameter of inhibition zone at 0.5 mg/ml after 24 hrs by agar well diffusion method; assay type: functional; conditions: read-out: DIZ
# Priestia megaterium [28] = assay: Antibacterial activity against Bacillus megaterium ATCC 9885 assessed as diameter of inhibition zone at 0.5 mg/ml after 24 hrs by agar well diffusion method; assay type: functional; conditions: ATCC 9885, 24 h, read-out: DIZ
# Klebsiella pneumoniae [29] = assay: microbe, parasite or virus in culture; conditions: ATCC 13883, 24 h, read-out: DIZ
# Description: Antibacterial activity against Klebsiella pneumoniae ATCC 13883 assessed as diameter of inhibition zone at 0.5 mg/ml after 24 hrs by agar well diffusion method
# Staphylococcus aureus [30] = assay: microbe, parasite or virus in culture; conditions: ATCC 29213, 24 h, read-out: DIZ
# Description: Antibacterial activity against Staphylococcus aureus ATCC 29213 assessed as diameter of inhibition zone at 0.5 mg/ml after 24 hrs by agar well diffusion method
# Bacillus subtilis [31] = assay: microbe, parasite or virus in culture; conditions: ATCC 6633, 24 h, read-out: DIZ
# Description: Antibacterial activity against Bacillus subtilis ATCC 6633 assessed as diameter of inhibition zone at 0.5 mg/ml after 24 hrs by agar well diffusion method
# Saccharomyces cerevisiae [32] = assay: Antifungal activity against Saccharomyces cerevisiae assessed as diameter of inhibition zone at 0.5 mg/ml after 24 hrs by agar well diffusion method; assay type: functional; conditions: read-out: DIZ
# Candida albicans [33] = assay: Antifungal activity against Candida albicans NRRLY-477 assessed as diameter of inhibition zone at 0.5 mg/ml after 24 hrs by agar well diffusion method; assay type: functional; conditions: NRRLY-477, 24 h, read-out: DIZ
smiles,measurement,setting,value
O=C(O)CNC(=O)c1ccc(NC(=S)Nc2cccc(Br)c2)cc1,zone of inhibition at 1000 µg/mL,Micrococcus luteus [1],20 mm
same,MIC,Saccharomyces cerevisiae [2],6.25 µg/mL
same,MIC,Bacillus subtilis [3],3.12 µg/mL
same,Ratio,Bacillus subtilis [4],2
same,MIC,Escherichia coli [5],6.25 µg/mL
same,MIC,Proteus vulgaris [6],6.25 µg/mL
same,MIC,Klebsiella pneumoniae [7],6.25 µg/mL
same,zone of inhibition at 1000 µg/mL,Escherichia coli [8],27 mm
same,zone of inhibition at 1000 µg/mL,Bacillus subtilis [9],30 mm
same,zone of inhibition at 1000 µg/mL,Candida albicans [10],30 mm
same,zone of inhibition at 1000 µg/mL,Staphylococcus aureus [11],31 mm
same,zone of inhibition at 1000 µg/mL,Priestia megaterium [12],32 mm
same,zone of inhibition at 1000 µg/mL,Klebsiella pneumoniae [13],30 mm
same,MIC,Staphylococcus aureus [14],6.25 µg/mL
same,MIC,Micrococcus luteus [15],12.5 µg/mL
same,MIC,Pseudomonas aeruginosa [16],12.5 µg/mL
same,MIC,Candida albicans [17],3.12 µg/mL
same,zone of inhibition at 1000 µg/mL,Pseudomonas aeruginosa [18],22 mm
same,zone of inhibition at 1000 µg/mL,Saccharomyces cerevisiae [19],28 mm
same,Ratio,Candida albicans [20],2
same,zone of inhibition at 1000 µg/mL,Proteus vulgaris [21],24 mm
same,MIC,Priestia megaterium [22],3.12 µg/mL
O=C(O)CNC(=O)c1ccc(NC(=S)Nc2ccc(S(=O)(=O)Nc3ncccn3)cc2)cc1,zone of inhibition at 1000 µg/mL,Micrococcus luteus [1],25 mm
same,MIC,Saccharomyces cerevisiae [2],3.12 µg/mL
same,MIC,Bacillus subtilis [3],12.5 µg/mL
same,MIC,Escherichia coli [5],6.25 µg/mL
same,MIC,Proteus vulgaris [6],12.5 µg/mL
same,MIC,Klebsiella pneumoniae [7],12.5 µg/mL
same,zone of inhibition at 1000 µg/mL,Escherichia coli [8],32 mm
same,zone of inhibition at 1000 µg/mL,Bacillus subtilis [9],26 mm
same,zone of inhibition at 1000 µg/mL,Candida albicans [10],25 mm
same,zone of inhibition at 1000 µg/mL,Staphylococcus aureus [11],32 mm
same,zone of inhibition at 1000 µg/mL,Priestia megaterium [12],27 mm
same,zone of inhibition at 1000 µg/mL,Klebsiella pneumoniae [13],17 mm
same,Ratio,Staphylococcus aureus [23],2
same,MIC,Staphylococcus aureus [14],3.12 µg/mL
same,MIC,Micrococcus luteus [15],12.5 µg/mL
same,Ratio,Pseudomonas aeruginosa [24],4
same,MIC,Pseudomonas aeruginosa [16],3.12 µg/mL
same,MIC,Candida albicans [17],12.5 µg/mL
same,zone of inhibition at 1000 µg/mL,Pseudomonas aeruginosa [18],34 mm
same,zone of inhibition at 1000 µg/mL,Saccharomyces cerevisiae [19],30 mm
same,zone of inhibition at 1000 µg/mL,Proteus vulgaris [21],21 mm
same,MIC,Priestia megaterium [22],12.5 µg/mL
Nc1n[nH]c(NC(=S)Nc2ccc(C(=O)NCC(=O)O)cc2)c1/N=N/c1ccc(Cl)cc1,zone of inhibition at 1000 µg/mL,Micrococcus luteus [1],30 mm
same,MIC,Saccharomyces cerevisiae [2],12.5 µg/mL
same,MIC,Bacillus subtilis [3],3.12 µg/mL
same,Ratio,Bacillus subtilis [4],2
same,MIC,Escherichia coli [5],6.25 µg/mL
same,MIC,Proteus vulgaris [6],6.25 µg/mL
same,MIC,Klebsiella pneumoniae [7],12.5 µg/mL
same,zone of inhibition at 1000 µg/mL,Escherichia coli [8],28 mm
same,zone of inhibition at 1000 µg/mL,Bacillus subtilis [9],32 mm
same,zone of inhibition at 1000 µg/mL,Candida albicans [10],30 mm
same,zone of inhibition at 1000 µg/mL,Staphylococcus aureus [11],28 mm
same,zone of inhibition at 1000 µg/mL,Priestia megaterium [12],27 mm
same,zone of inhibition at 1000 µg/mL,Klebsiella pneumoniae [13],22 mm
same,MIC,Staphylococcus aureus [14],6.25 µg/mL
same,MIC,Micrococcus luteus [15],12.5 µg/mL
same,MIC,Pseudomonas aeruginosa [16],12.5 µg/mL
same,MIC,Candida albicans [17],3.12 µg/mL
same,zone of inhibition at 1000 µg/mL,Pseudomonas aeruginosa [18],28 mm
same,zone of inhibition at 1000 µg/mL,Saccharomyces cerevisiae [19],25 mm
same,Ratio,Candida albicans [20],2
same,zone of inhibition at 1000 µg/mL,Proteus vulgaris [21],28 mm
same,MIC,Priestia megaterium [22],6.25 µg/mL
O=C(O)CNC(=O)c1ccc(NC(=S)NNS(=O)(=O)c2ccccc2)cc1,zone of inhibition at 1000 µg/mL,Micrococcus luteus [1],20 mm
same,MIC,Saccharomyces cerevisiae [2],12.5 µg/mL
same,MIC,Bacillus subtilis [3],3.12 µg/mL
same,Ratio,Bacillus subtilis [4],2
same,MIC,Escherichia coli [5],6.25 µg/mL
same,MIC,Proteus vulgaris [6],12.5 µg/mL
same,MIC,Klebsiella pneumoniae [7],12.5 µg/mL
same,zone of inhibition at 1000 µg/mL,Escherichia coli [8],29 mm
same,zone of inhibition at 1000 µg/mL,Bacillus subtilis [9],30 mm
same,zone of inhibition at 1000 µg/mL,Candida albicans [10],32 mm
same,zone of inhibition at 1000 µg/mL,Staphylococcus aureus [11],32 mm
same,zone of inhibition at 1000 µg/mL,Priestia megaterium [12],31 mm
same,zone of inhibition at 1000 µg/mL,Klebsiella pneumoniae [13],25 mm
same,MIC,Staphylococcus aureus [14],6.25 µg/mL
same,MIC,Micrococcus luteus [15],12.5 µg/mL
same,MIC,Pseudomonas aeruginosa [16],12.5 µg/mL
same,MIC,Candida albicans [17],3.12 µg/mL
same,zone of inhibition at 1000 µg/mL,Pseudomonas aeruginosa [18],23 mm
same,zone of inhibition at 1000 µg/mL,Saccharomyces cerevisiae [19],24 mm
same,Ratio,Candida albicans [20],2
same,zone of inhibition at 1000 µg/mL,Proteus vulgaris [21],20 mm
same,MIC,Priestia megaterium [22],3.12 µg/mL
O=C(O)c1cn(C2CC2)c2cc(N3CCNCC3)c(F)cc2c1=O [CIPROFLOXACIN],MIC,Bacillus subtilis [3],6.25 µg/mL
same,MIC,Escherichia coli [5],12.5 µg/mL
same,zone of inhibition at 500 µg/mL,Pseudomonas aeruginosa [25],24 mm
same,MIC,Proteus vulgaris [6],12.5 µg/mL
same,MIC,Klebsiella pneumoniae [7],12.5 µg/mL
same,zone of inhibition at 500 µg/mL,Proteus vulgaris [26],23 mm
same,MIC,Micrococcus luteus [15],12.5 µg/mL
same,zone of inhibition at 500 µg/mL,Micrococcus luteus [27],20 mm
same,zone of inhibition at 500 µg/mL,Priestia megaterium [28],24 mm
same,zone of inhibition at 500 µg/mL,Klebsiella pneumoniae [29],25 mm
same,zone of inhibition at 500 µg/mL,Staphylococcus aureus [30],20 mm
same,MIC,Priestia megaterium [22],6.25 µg/mL
same,zone of inhibition at 500 µg/mL,Bacillus subtilis [31],22 mm
CC(=O)N1CCN(c2ccc(OCC3COC(Cn4ccnc4)(c4ccc(Cl)cc4Cl)O3)cc2)CC1 (stereo not given) [KETOCONAZOLE],MIC,Saccharomyces cerevisiae [2],3.12 µg/mL
same,zone of inhibition at 500 µg/mL,Saccharomyces cerevisiae [32],23 mm
same,MIC,Candida albicans [17],6.25 µg/mL
same,zone of inhibition at 500 µg/mL,Candida albicans [33],22 mm
